Measurements published in ChEMBL document CHEMBL1201862, “PubChem BioAssay data set” (2004).
Activity calls are given as the source filed them.

Assays:
HeLa = assay: viability loss in HeLa cells – cell-based, 24 h, cherry-picked samples, cytotoxicity control, dose response (AID 504726); type: functional; settings: Homo sapiens;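 also: potency for cytotoxicity as loss of luminescence signal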
ORF 73 = ORF 73 (Human herpesvirus 8, UniProt O40947); assay: KSHV LANA DNA-binding disruption – biochemical, fluorescence polarization, cherry-picked samples, dose response (AID 504725); set-up: species or system Human gammaherpesvirus 8;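 also: fluorescence polarization of a labeled DNA duplex reporting LANA DNA binding; potency is for inhibitors that block LANA binding to the DNA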
[1] = target: Eukaryotic translation initiation factor 4E (Mus musculus, UniProt P63073); assay: blockers of eIF4G binding by eIF4E – biochemical, TR-FRET, dose response (AID 855); type: functional;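 also: potency for disrupting eIF4E binding to eIF4GI seen as loss of FRET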
Keap1/Nrf2 = Keap1/Nrf2 (Homo sapiens, UniProt Q14145); assay: disruptors of Keap1 binding to Nrf2 peptide – biochemical, fluorescence polarization, cherry-picked samples, dose response (AID 588683)
[2] = target: T1, Corticotropin-releasing factor receptor 2/Corticotropin-releasing factor-binding protein (Homo sapiens, UniProt P24387+Q13324); assay: activators of CRF receptor 2 with binding protein – uHTS hits, confirmation (AID 602473); type: functional; settings: read-out: EC50_Mean
T1 sequence (Q13324 whole entry): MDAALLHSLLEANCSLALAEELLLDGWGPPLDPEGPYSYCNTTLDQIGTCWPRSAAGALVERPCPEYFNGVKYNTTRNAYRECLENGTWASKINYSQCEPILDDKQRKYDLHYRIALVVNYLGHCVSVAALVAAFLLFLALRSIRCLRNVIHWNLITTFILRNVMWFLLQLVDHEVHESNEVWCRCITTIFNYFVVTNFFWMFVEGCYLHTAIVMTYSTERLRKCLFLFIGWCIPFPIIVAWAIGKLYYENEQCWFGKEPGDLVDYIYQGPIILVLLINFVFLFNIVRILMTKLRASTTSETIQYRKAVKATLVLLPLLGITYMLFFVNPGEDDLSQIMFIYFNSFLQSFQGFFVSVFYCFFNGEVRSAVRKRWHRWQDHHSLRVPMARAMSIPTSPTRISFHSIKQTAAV
T1 sequence (P24387 whole entry): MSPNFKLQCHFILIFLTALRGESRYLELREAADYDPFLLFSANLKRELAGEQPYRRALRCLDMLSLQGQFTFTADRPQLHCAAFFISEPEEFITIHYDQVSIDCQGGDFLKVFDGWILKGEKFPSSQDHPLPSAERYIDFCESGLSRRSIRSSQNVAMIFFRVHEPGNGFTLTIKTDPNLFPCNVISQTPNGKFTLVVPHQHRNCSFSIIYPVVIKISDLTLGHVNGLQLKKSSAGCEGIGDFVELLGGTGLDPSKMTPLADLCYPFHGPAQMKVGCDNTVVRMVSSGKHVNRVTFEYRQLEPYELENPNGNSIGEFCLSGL

Hexokinase HKDC1 = target: T2, Hexokinase HKDC1 (Homo sapiens, UniProt Q2TB90); assay: activation of HKDC1 glucose phosphorylation – biochemical, W721R variant, dose response (AID 504730); type: functional
T2 sequence (Q2TB90 whole entry): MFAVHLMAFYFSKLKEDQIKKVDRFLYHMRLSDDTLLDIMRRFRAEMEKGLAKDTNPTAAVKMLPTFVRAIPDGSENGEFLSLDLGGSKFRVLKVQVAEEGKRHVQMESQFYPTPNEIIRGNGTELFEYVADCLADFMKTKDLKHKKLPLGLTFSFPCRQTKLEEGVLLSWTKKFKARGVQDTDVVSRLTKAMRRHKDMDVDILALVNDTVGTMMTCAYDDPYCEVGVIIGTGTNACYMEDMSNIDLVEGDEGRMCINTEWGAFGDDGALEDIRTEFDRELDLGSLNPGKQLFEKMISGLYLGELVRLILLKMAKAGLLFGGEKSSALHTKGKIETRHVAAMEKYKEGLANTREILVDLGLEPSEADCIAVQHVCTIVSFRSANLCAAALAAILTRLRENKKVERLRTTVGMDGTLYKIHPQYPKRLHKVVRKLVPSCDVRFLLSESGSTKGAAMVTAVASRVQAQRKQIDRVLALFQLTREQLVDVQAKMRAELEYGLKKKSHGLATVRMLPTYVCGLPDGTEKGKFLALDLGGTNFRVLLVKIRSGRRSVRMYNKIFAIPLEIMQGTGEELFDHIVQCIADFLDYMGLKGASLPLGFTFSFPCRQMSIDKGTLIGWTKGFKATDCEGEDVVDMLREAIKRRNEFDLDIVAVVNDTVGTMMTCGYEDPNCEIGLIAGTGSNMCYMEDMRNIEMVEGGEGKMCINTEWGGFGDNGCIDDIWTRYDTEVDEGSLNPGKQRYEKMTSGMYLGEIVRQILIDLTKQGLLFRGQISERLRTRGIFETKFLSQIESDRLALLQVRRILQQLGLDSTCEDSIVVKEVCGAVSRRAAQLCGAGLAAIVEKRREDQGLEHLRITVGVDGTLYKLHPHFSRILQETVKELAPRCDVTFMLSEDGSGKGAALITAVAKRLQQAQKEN

Hexokinase-1 = Hexokinase-1 (Homo sapiens, UniProt P19367); assay: HK1 enzyme activation by HKDC1 hits – biochemical, selectivity assay for HKDC1 activator project, dose response (AID 504762); type: functional
[3] = target: T3, Mannose-6-phosphate isomerase (Homo sapiens, UniProt P34949); assay: phosphomannose isomerase inhibition – biochemical, fluorescence intensity, confirmation (AID 1535)
T3 sequence (P34949 whole entry): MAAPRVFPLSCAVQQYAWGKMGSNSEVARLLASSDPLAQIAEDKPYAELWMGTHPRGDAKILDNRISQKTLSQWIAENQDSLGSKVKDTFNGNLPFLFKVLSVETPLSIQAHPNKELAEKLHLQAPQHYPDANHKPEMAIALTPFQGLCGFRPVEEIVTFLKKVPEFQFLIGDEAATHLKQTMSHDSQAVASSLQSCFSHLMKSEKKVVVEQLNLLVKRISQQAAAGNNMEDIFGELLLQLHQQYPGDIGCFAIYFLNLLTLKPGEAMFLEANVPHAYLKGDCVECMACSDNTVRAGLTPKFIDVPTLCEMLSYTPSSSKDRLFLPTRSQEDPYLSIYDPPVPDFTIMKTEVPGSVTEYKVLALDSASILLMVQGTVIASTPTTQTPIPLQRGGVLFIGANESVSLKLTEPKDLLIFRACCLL

Phosphomannomutase 2 = Phosphomannomutase 2 (Homo sapiens, UniProt O15305); assay: Counter screen SAR assay for PMM2 inhibitors via a fluorescence intensity assay. [Related pubchem assays (depositor defined):AID1545, AID1574]
[4] = target: DNA dC->dU-editing enzyme APOBEC-3G (Homo sapiens, UniProt Q9HC16); assay: Dose Response confirmation of small molecule APOBEC3G DNA Deaminase Inhibitors via a fluorescence-based single-stranded DNA deaminase assay. [Related pubchem assays (depositor defined):AID493012, AID493028]; type: functional
[5] = target: T4, Rac GTPase-activating protein 1 (Homo sapiens, UniProt Q9H0H5); assay: blockers of MgcRacGAP-driven Rac1 GTP hydrolysis – biochemical, ADP Hunter fluorescence, primary and confirmatory, confirmation (AID 624330); type: functional
T4 sequence (Q9H0H5 whole entry): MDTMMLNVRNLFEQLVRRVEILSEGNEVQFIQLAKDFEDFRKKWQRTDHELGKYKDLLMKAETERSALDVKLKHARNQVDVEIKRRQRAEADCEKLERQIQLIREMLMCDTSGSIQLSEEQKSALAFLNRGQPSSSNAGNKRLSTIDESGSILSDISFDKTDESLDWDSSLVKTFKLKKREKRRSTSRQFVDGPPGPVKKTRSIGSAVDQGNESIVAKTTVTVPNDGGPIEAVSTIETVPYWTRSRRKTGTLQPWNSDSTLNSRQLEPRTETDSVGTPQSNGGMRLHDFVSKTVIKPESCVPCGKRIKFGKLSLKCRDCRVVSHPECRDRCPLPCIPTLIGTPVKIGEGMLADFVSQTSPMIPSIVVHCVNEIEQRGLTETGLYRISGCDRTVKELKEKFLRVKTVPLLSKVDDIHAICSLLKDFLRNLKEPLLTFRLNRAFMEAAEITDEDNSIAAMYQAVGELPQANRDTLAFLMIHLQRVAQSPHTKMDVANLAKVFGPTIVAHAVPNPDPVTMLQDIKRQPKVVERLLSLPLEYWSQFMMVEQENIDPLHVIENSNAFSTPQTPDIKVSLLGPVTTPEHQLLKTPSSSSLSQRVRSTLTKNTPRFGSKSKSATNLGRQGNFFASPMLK

[6] = Luminescence Cell-Based Dose Retest to Confirm Inhibitors of Cancer Stem Cells. [Related pubchem assays (depositor defined):AID2717, AID2721]; type: functional; settings: Homo sapiens
Jurkat = assay: blockers of NF-kB activation in T cells – Jurkat, luciferase reporter, luminescence, B- and T-cell, dose response (AID 489004); type: functional, cell-based; settings: Homo sapiens;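 also: NF-kB luciferase reporter Jurkat cells stimulated with PMA plus ionomycin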
[7] = HEK-293T viability loss, compound-treated – cell-based, uHTS hits, cytotoxicity control for B/T-cell NF-kB inhibitor project, dose response (AID 489019); type: functional;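 also: IC50 reflects cytotoxicity as loss of cell viability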
Vero = assay: cells; type: functional; settings: Chlorocebus sabaeus
Paired box protein Pax-8 = Paired box protein Pax-8 (Homo sapiens, UniProt Q06710); assay: PAX8 transcriptional activity inhibition in RMG-I – RMG-I cells, luciferase, cherry-pick, dose response (AID 687027); type: functional, cell-based;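 also: luciferase reporter driven by Pax8 target thyroperoxidase promoter measured by SteadyGlo luminescence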
Paired box protein Pax-8, sequence (Q06710 whole entry): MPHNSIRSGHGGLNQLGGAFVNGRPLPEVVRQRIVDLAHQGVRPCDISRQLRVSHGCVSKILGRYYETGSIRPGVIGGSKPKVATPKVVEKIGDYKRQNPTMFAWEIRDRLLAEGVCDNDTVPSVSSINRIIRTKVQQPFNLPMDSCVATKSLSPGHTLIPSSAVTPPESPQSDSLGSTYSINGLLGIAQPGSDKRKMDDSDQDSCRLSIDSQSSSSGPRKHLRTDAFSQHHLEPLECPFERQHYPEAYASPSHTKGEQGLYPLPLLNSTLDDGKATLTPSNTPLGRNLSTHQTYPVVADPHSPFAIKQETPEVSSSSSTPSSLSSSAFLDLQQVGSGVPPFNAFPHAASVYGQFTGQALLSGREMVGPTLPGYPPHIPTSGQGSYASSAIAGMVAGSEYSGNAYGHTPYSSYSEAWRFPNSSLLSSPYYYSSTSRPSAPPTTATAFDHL

ORF 73, sequence (O40947 whole entry): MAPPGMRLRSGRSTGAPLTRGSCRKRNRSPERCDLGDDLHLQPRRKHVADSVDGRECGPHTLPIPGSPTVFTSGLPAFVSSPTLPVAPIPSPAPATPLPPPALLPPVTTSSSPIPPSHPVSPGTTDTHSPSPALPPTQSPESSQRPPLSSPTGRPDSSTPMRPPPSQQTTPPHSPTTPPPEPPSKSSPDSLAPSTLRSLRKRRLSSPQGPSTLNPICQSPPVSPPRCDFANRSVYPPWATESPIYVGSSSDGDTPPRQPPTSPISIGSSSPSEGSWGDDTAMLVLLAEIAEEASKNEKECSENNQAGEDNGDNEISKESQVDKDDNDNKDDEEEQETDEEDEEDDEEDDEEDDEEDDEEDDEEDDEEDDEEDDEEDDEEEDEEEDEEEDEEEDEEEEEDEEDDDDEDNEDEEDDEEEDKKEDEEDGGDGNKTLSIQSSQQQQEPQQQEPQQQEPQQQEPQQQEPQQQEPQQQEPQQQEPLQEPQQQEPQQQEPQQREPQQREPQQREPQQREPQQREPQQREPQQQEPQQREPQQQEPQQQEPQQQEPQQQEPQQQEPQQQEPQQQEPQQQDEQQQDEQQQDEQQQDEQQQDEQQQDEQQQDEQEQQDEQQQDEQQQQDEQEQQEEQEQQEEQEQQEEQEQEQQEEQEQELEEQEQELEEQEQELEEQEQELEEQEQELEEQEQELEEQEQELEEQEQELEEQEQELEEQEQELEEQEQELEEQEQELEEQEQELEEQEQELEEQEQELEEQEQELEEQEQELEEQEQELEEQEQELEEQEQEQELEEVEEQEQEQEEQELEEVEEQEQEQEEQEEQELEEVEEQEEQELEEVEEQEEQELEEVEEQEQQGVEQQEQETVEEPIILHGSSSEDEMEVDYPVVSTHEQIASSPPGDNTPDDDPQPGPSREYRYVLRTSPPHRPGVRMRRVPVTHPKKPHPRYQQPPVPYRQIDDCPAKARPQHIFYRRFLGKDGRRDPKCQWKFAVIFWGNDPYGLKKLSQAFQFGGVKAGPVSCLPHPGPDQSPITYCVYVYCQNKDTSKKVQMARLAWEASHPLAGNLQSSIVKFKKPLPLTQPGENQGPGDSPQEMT
Keap1/Nrf2, sequence (Q16236 whole entry): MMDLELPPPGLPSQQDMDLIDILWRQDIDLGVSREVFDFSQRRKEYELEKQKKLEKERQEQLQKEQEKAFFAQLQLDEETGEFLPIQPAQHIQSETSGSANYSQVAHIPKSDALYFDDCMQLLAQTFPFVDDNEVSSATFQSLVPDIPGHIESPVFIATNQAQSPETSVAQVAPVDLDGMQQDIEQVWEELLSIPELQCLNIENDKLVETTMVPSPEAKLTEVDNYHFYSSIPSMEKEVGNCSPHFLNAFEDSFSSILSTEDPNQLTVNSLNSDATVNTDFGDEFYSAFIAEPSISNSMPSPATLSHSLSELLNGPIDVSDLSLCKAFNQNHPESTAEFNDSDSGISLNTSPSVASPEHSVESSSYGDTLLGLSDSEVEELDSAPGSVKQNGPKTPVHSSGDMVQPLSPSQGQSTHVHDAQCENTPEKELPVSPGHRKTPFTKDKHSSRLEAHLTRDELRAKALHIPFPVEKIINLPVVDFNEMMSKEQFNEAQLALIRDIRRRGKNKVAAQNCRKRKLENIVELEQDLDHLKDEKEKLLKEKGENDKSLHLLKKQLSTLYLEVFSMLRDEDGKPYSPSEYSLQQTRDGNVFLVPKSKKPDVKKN
Keap1/Nrf2, sequence (Q14145 whole entry): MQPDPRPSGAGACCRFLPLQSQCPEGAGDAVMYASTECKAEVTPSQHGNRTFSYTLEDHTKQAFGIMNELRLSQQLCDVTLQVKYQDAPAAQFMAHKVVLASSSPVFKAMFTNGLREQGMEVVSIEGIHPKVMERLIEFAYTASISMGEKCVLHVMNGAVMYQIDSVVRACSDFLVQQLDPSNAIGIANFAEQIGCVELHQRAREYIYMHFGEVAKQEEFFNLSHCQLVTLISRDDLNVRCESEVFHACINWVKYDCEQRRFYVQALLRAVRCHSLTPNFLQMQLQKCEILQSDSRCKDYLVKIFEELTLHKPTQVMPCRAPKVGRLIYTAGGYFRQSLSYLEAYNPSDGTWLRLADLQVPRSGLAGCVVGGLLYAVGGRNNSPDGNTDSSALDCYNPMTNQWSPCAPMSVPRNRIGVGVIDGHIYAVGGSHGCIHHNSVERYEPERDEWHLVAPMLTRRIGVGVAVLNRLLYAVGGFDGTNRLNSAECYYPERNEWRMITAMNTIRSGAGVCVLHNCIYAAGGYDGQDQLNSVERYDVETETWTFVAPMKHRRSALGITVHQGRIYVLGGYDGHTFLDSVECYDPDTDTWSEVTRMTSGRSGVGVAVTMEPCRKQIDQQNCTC
DNA dC->dU-editing enzyme APOBEC-3G, sequence (Q9HC16 whole entry): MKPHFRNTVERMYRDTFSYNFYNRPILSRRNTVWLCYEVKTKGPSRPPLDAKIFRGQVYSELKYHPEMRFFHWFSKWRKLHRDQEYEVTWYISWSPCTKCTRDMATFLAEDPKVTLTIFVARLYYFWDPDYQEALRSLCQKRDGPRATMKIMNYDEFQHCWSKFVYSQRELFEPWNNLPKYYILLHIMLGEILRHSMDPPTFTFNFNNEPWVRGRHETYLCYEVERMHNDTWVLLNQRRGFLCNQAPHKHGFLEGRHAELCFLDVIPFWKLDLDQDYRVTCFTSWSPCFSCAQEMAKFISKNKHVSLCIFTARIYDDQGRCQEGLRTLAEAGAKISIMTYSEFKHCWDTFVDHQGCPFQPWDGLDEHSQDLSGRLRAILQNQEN
Eukaryotic translation initiation factor 4E, sequence (P63073 whole entry): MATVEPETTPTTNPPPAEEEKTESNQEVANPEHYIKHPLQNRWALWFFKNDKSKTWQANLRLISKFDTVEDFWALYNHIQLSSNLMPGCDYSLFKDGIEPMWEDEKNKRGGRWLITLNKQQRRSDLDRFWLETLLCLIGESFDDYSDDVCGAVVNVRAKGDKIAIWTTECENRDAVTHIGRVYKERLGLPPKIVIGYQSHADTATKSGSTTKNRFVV
Hexokinase-1, sequence (P19367 whole entry): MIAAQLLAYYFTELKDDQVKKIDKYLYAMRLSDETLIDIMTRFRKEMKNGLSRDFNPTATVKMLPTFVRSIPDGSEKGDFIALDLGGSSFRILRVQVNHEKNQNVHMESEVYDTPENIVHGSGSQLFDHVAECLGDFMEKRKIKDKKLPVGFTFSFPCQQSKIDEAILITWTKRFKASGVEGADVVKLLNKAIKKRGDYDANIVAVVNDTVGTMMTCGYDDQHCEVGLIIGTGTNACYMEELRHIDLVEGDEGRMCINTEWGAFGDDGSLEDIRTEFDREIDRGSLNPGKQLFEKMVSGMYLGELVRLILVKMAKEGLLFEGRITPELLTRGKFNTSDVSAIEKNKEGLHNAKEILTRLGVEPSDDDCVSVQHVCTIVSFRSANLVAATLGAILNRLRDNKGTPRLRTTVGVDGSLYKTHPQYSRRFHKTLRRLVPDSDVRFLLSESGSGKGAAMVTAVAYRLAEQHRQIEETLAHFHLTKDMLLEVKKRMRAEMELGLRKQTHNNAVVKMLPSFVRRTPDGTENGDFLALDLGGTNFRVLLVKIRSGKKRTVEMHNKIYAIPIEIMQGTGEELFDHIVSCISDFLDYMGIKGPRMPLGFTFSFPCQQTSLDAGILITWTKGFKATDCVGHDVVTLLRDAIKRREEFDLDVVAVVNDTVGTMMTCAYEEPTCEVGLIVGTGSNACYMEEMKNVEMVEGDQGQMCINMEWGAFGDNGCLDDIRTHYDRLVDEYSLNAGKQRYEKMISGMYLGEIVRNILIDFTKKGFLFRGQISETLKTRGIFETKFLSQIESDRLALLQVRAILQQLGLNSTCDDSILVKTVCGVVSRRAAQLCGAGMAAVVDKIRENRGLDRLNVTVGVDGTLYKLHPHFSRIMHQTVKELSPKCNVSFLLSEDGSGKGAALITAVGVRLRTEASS
Phosphomannomutase 2, sequence (O15305 whole entry): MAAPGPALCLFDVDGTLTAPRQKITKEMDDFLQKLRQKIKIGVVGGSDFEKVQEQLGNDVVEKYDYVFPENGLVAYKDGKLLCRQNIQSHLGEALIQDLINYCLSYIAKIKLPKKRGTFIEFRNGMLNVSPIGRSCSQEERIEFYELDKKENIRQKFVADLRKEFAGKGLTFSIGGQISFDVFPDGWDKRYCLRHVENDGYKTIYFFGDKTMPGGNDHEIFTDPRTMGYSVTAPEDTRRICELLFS

Question: With CCCN(CCC)S(=O)(=O)c1ccc(C(=O)OCCN2C(=O)c3cccc4c(N5CCOCC5)ccc(c34)C2=O)cc1 as the compound, how does the AC50 (HeLa) read?
Answer: 57.8 µM (active)

Question: And the AC50 (ORF 73)?
Answer: 21.4 µM (active)

Question: What about the IC50 [1] of the same compound?
Answer: > 64 µM (inactive)

Question: And the AC50 (Keap1/Nrf2)?
Answer: 7.75 µM (active)

Question: What about the EC50 [2] of the same compound?
Answer: 6.32 µM (active)

Question: Which results are given for Cc1cc(C2=NN=C(Nc3ccc(S(=O)(=O)N4CCOCC4)cc3)SC2)c(C)n1CC1CCCO1 (stereo not given)?
Answer: EC50 (Hexokinase HKDC1): 31.2 µM (inactive); EC50 (Hexokinase-1): 29.5 µM (inactive)

Question: With Sc1nnc(Nc2ccccc2Cl)s1 as the compound, how does the IC50 [3] read?
Answer: > 50 µM (inactive)

Question: And the IC50 (Phosphomannomutase 2)?
Answer: > 100 µM (inactive)

Question: What about the IC50 [4] of the same compound?
Answer: > 100 µM (inactive)

Question: What about the IC50 [5] of the same compound?
Answer: 54.8 µM (active)

Question: With C[C@@H]1O[C@@H](O[C@@H]2C=C3CCC4C(CC[C@]5(C)[C@@H](c6ccc(=O)oc6)CC[C@]45O)[C@@]3(C)CC2)[C@H](O)[C@H](O)[C@H]1O (stereo not given in full) as the compound, how does the AC50 [6] read?
Answer: < 0.16 µM (active)

Question: And the IC50 (Jurkat)?
Answer: 1.66 µM (active)

Question: What about the IC50 [7] of the same compound?
Answer: > 80 µM (inactive)

Question: What about the CC50 (Vero) of the same compound?
Answer: < 0.05 µM (active)

Question: And the AC50 (Paired box protein Pax-8)?
Answer: < 0.26 µM (active)

Question: For COc1ccc2nc3ccccc3[n+]([O-])c2c1, which AC50 (HeLa) is on record?
Answer: 119 µM (active)

Question: What about the AC50 (ORF 73) of the same compound?
Answer: 30.8 µM (active)

Question: And the AC50 (Keap1/Nrf2)?
Answer: 8.81 µM (active)

Question: What about the EC50 [2] of the same compound?
Answer: 18.1 µM (active)
